Experimental data from patent US8906952B2, “Indole derivative or pharmaceutically acceptable salt thereof, preparation method thereof, and pharmaceutical composition for preventing or treating metabolic diseases containing same as active ingredient” (Korea Research Institute of Bioscience and Biotechnology, priority 2011, dated 2014).
pIC50: −log10 of the molar value. Like-named read-outs stand apart in the source and are kept apart here.

Experiments:
[1] = target: T1, DGAT-1 (rat liver) (Rattus norvegicus, UniProt Q9ERM3); assay: DGAT enzyme inhibition test, rat liver-derived DGAT enzyme; assay type: biochemical; details: rat liver microsomal protein
T1 construct: microsomal protein isolated from rat; from tissue; host or cells: rat liver microsomes
T1 sequence (Q9ERM3 1-498): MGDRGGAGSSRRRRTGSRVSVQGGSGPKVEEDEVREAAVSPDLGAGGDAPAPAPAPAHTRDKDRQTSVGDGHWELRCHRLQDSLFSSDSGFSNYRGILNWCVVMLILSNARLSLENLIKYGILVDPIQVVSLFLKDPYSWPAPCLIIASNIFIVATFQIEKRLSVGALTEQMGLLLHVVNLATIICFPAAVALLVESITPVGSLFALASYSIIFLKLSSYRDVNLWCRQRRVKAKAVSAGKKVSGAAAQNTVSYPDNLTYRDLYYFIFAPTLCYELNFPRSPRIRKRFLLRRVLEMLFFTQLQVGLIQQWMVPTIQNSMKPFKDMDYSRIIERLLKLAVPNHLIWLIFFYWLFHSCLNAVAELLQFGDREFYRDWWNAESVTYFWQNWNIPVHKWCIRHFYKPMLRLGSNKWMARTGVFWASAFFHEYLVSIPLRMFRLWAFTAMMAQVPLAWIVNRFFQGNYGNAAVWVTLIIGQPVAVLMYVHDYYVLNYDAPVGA
Description: (§1) To investigate inhibitory effect of the compounds of Examples 1-33 against DGAT enzyme activity, DGAT enzyme inhibition and DGAT2 selectivity were investigated using zymogen including:
3) rat liver-derived DGAT enzyme.
(§2) To be specific, for the purpose of measuring human-derived DGAT enzyme inhibitory activity, using the zymogen, including enzymes derived from insect cell overexpressing human DGAT1 and DGAT2 (‘sf9’), microsomal protein isolated from human duodenal adenocarcinoma (‘Hutu 80’), and microsomal protein isolated from rat, and according to Coleman et al., (Methods Enzymol., 98-103, 1992), and substrate including 1,2-diacylglycerol(Sigma, D0138) and [^14C]palmitoyl-CoA (Amersham, CFA583), the amount of radiation of [^14C]triacylglycerol produced after enzymatic reaction was measured.
(§3) To be more specific, to the reaction solution containing 175 mM Tris-HCl (pH 8.0), 20 μl bovine serum albumin (10 mg/ml), 100 mM magnesium chloride, 30 μM [^14C]palmitoyl CoA (0.02 μCi, Amersham) and 200 μM 1,2-dioleoylglycerol, reagent dissolved in dimethylsulfoxide (10.0 μl) was added. After introducing 100 to 200 μg isolated microsomal protein and allowing the same to react at 25° C. for 10 min, the reaction was stopped by adding 1.5 ml stop solution (2-propanol:heptane:water=80:20:2, v:v:v). To isolate the product of the reaction (i.e., [^14C]triacylglycerol), 1 ml heptane and 0.5 ml distilled water were added and then decocted. After taking 1 ml supernatant, 2 ml alkaline ethanol solution (ethanol:0.5 N sodium hydroxide:water=50:10:40, v:v:v) were added and then decocted. After taking 0.65 ml supernatant from the decoction, the amount of radiation was measured with liquid scintillation counter (LSC). The DGAT inhibitory activity was calculated with Mathematical Expression 1 below:
(§4) T denotes cpm of experimental group in which the enzymatic reaction solution was treated with the sample,
(§5) C denotes cpm of control group in which the enzymatic reaction solution was not treated with the sample, and
(§6) B denotes cpm of control group treated with the sample without zymogen.

[2] = target: T2, human DGAT2 (Homo sapiens, UniProt Q96PD7); assay: DGAT enzyme inhibition test, hDGAT2 enzyme from sf9 insect cells (DGAT2 selectivity); assay type: biochemical
T2 construct: made in house; host or cells: sf9 insect cells
T2 sequence (Q96PD7 1-388): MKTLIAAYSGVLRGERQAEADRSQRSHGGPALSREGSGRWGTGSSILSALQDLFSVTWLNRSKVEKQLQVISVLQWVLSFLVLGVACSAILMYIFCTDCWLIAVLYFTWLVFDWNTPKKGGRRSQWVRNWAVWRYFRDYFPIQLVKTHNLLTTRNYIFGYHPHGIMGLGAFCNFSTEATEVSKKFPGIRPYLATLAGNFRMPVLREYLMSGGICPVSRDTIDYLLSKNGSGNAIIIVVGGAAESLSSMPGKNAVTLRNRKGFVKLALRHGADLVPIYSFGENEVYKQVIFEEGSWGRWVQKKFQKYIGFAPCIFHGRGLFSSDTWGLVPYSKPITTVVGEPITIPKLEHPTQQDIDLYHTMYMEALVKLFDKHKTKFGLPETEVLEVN
Description: as §1
1) hDGAT1 and hDGAT2 enzymes, derived from insect cell overexpressing human DGAT1 and DGAT2 (‘sf9’), respectively,
as §2, §3, §4, §5, §6

[3] = 10 μM, enzyme from sf9 cells overexpressing hDGAT2, read-out: hDGAT-2 (sf9) inhibition rate(%)at 10 μM
[4] = concentration of 10 μM, read-out: hDGAT2 inhibition

Row | pIC50 [1] | inhibition at 10 µM [2, 3] [%] | inhibition at 10 µM [2, 4] [%] | SMILES
1 | 5.12 | < 0 | – | CC(C)N(NC(=O)c1ccccn1)C(=O)/C=C/c1cn(C(=O)OC(C)(C)C)c2ccccc12 [Example 2, (E)-tert-butyl 3-(3-(1-isopropyl-2-picolinoylhydrazinyl)-3-oxoprop-1-enyl)-1H-indole-1-carboxylate]
2 | 5.41 | < 0 | – | CC(C)N(NC(=O)c1cccnc1)C(=O)/C=C/c1cn(C(=O)OC(C)(C)C)c2ccccc12 [Example 3, (E)-tert-butyl 3-(3-(1-isopropyl-2-nicotinoylhydrazinyl)-3-oxoprop-1-enyl)-1H-indole-1-carboxylate]
3 | 4.65 | < 0 | – | CC(C)N(NC(=O)c1cccc(O)c1)C(=O)/C=C/c1cn(C(=O)OC(C)(C)C)c2ccccc12 [Example 4, (E)-tert-butyl 3-(3-(2-(3-hydroxybenzoyl)-1-isopropylhydrazinyl)-3-oxoprop-1-enyl)-1H-indole-1-carboxylate]
4 | 4.79 | < 0 | < 11 | CC(C)N(NC(=O)c1ccc(O)cc1)C(=O)/C=C/c1cn(C(=O)OC(C)(C)C)c2ccccc12 [Example 5, (E)-tert-butyl 3-(3-(2-(4-hydroxybenzoyl)-1-isopropylhydrazinyl)-3-oxoprop-1-enyl)-1H-indole-1-carboxylate]
5 | 5.68 | 0.3 | – | COc1cccc(C(=O)NN(C(=O)/C=C/c2cn(C(=O)OC(C)(C)C)c3ccccc23)C(C)C)c1 [Example 6, (E)-tert-butyl 3-(3-(1-isopropyl-2-(3-methoxybenzoyl)hydrazinyl)-3-oxoprop-1-enyl)-1H-indole-1-carboxylate]
6 | 5.06 | < 0 | – | COc1ccc(C(=O)NN(C(=O)/C=C/c2cn(C(=O)OC(C)(C)C)c3ccccc23)C(C)C)cc1 [Example 7, (E)-tert-butyl 3-(3-(1-isopropyl-2-(4-methoxybenzoyl)hydrazinyl)-3-oxoprop-1-enyl)-1H-indole-1-carboxylate]
7 | 5.60 | < 0 | – | CC(C)N(NC(=O)c1cccc(OCCN2CCOCC2)c1)C(=O)/C=C/c1cn(C(=O)OC(C)(C)C)c2ccccc12 [Example 8, (E)-tert-butyl 3-(3-(1-isopropyl-2-(3-(2-morpholinoethoxy)benzoyl)hydrazinyl)-3-oxoprop-1-enyl)-1H-indole-1-carboxylate]
8 | 4.93 | < 0 | – | CC(C)N(NC(=O)c1ccc(OCCN2CCOCC2)cc1)C(=O)/C=C/c1cn(C(=O)OC(C)(C)C)c2ccccc12 [Example 9, (E)-tert-butyl 3-(3-(1-isopropyl-2-(4-(2-morpholinoethoxy)benzoyl)hydrazinyl)-3-oxoprop-1-enyl)-1H-indole-1-carboxylate]
9 | 5.59 | 8.3 | < 11 | COCCOc1cccc(C(=O)NN(C(=O)/C=C/c2cn(C(=O)OC(C)(C)C)c3ccccc23)C(C)C)c1 [Example 10, (E)-tert-butyl 3-(3-(1-isopropyl-2-(3-(2-methoxyethoxy)benzoyl)hydrazinyl)-3-oxoprop-1-enyl)-1H-indole-1-carboxylate]
10 | 5.77 | 3.9 | < 11 | CC(C)N(NC(=O)c1cccc(Br)c1)C(=O)/C=C/c1cn(C(=O)OC(C)(C)C)c2ccccc12 [Example 12, (E)-tert-butyl 3-(3-(2-(3-bromobenzoyl)-1-isopropylhydrazinyl)-3-oxoprop-1-enyl)-1H-indole-1-carboxylate]

Row | SMILES | pIC50 [1] | inhibition at 10 µM [2, 3] [%] | inhibition at 10 µM [2, 4] [%]
11 | CC(C)N(NC(=O)c1ccccc1)C(=O)/C=C/c1cn(C(=O)OC(C)(C)C)c2ccccc12 [Example 1, (E)-tert-butyl 3-(3-(2-benzoyl-1-isopropylhydrazinyl)-3-oxoprop-1-enyl)-1H-indole-1-carboxylate] | 5.96 | 7.5 | < 11
